The test has as its target T1, Purine nucleoside phosphorylase (Homo sapiens, UniProt P00491).
T1 sequence (P00491 whole entry): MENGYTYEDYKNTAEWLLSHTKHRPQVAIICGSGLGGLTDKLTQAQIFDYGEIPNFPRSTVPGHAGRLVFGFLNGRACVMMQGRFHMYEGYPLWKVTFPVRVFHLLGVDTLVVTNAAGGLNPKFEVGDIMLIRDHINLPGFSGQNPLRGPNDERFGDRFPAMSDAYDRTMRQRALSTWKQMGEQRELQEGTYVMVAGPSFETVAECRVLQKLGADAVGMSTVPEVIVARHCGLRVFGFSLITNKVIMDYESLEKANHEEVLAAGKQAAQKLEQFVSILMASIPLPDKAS
Put plainly: In vitro inhibition of purine nucleoside phosphorylase isolated from human erythrocytes.
As usually defined, the Ki is a dissociation constant, usually derived from enzyme kinetics or from competition with a known ligand. For the compound `Nc1nc2c(cnn2CCCCCCCCP(=O)(O)O)c(=O)[nH]1`, the Ki was 1100 nM.

For the compound `Nc1nc2c(ncn2COCCCCCCP(=O)(O)O)c(=O)[nH]1`, affinity was put at a Ki of 220 nM. Consider `Nc1nc2c(cnn2CCCCCCCP(=O)(O)O)c(=O)[nH]1`, for which the affinity, expressed as Ki, was 580 nM.

Compound `Nc1nc2c(cnn2COCCCCCP(=O)(O)O)c(=O)[nH]1` showed a Ki of 230 nM.

As for `Nc1nc(O)c2nnn(CCCCCP(=O)(O)O)c2n1`, the Ki was 65 nM. With `Nc1nc(O)c2nn(COCCCCCP(=O)(O)O)nc2n1`, the inhibition constant (Ki) came to 550 nM. As to `Nc1nc(O)c2ncn(CCCCCCCCP(=O)(O)O)c2n1`, the Ki was 390 nM.

In the case of `Nc1nc2c(nnn2COCCCCCP(=O)(O)O)c(=O)[nH]1`, the Ki was 96 nM. As for `Nc1nc2c(ncn2COCCCCCP(=O)(O)O)c(=O)[nH]1`, the inhibition constant Ki was found to be 160 nM. Consider `Nc1nc(O)c2nnn(COCCCCCCP(=O)(O)O)c2n1`, for which the inhibition constant Ki is 190 nM. As for `Nc1nc2c(ncn2COCCCCOP(=O)(O)O)c(=O)[nH]1`, the figure is 51 nM; as for `Nc1nc(O)c2nnn(CCCCP(=O)(O)O)c2n1`, 7300 nM. Compound `Nc1nc2c(cnn2CCCCCCC(F)(F)P(=O)(O)O)c(=O)[nH]1` displayed a Ki of 49 nM. As for `Nc1nc(O)c2ncn(COCCCCP(=O)(O)O)c2n1`, the figure is 56 nM; as for `Nc1nc2c(ncn2CCCCCCCCCCP(=O)(O)O)c(=O)[nH]1`, 1600 nM; as for `Nc1nc(O)c2ncn(CCCCCCCP(=O)(O)O)c2n1`, 530 nM.

With `Nc1nc2c(ncn2CCCCCCC(F)(F)P(=O)(O)O)c(=O)[nH]1`, the Ki is 57 nM.

For `Nc1nc2c(cnn2COCCCCCCP(=O)(O)O)c(=O)[nH]1`, the Ki was 630 nM.

Compound `Nc1nc2c(nnn2COCCCCP(=O)(O)O)c(=O)[nH]1` returned an inhibition constant Ki of 48 nM. With `Nc1nc(O)c2nnn(CCCCCCP(=O)(O)O)c2n1`, affinity was put at a Ki of 360 nM.

These data come from ChEMBL document CHEMBL1129497, “Guanine, pyrazolo[3,4-d]pyrimidine, and triazolo[4,5-d]pyrimidine (8-azaguanine) phosphonate acyclic derivatives as inhibitors of purine nucleoside phosphorylase” (J Med Chem, 1996).
